Data from US6585982B1, “Treatment of infertility” (NNA/S, priority 1999, dated 2003).

Key:
[1] = system: metaphase II oocytes; assay: FF-MAS as adjunct to a standard FSH based IVF treatment (GnRH analog Synarel down regulation, ICSI); type: cell-based, human
Excerpt: (§1) The patient underwent down regulation with an GnRH analog, i.e., Synarel (nasal spray, two puffs daily), for at least 14 days (starting in the luteal phase of the previous cycle or Day 1 or 2 in the follicular phase of the current cycle) and ovarian stimulation with recombinant FSH with an average daily dose of 225 IU. At least 3 follicles of 17 mm or more were present at the time of administering hCG, i.e. Profase (10.000 IU, one shot). Follicles were aspirated and metaphase II oocytes were cultured in oocyte culture system containing standard in vitro fertilization (IVF) media (IVF 20 (which is available from Scandinavian IVF Science AB, Gothenburg, Sweden)) supplemented with human serum albumin (0.8%) and FF-MAS (5 μM). All oocytes were cultured under normal conditions at 37° C. in the incubator. Each oocyte was cultured in one well in a four-chamber culture dish as culture media system. […] Preembryos were evaluated for cleavage stage and fragmentation/morphology at 1, 2 and 3 days post ICSI. […] The patient received an estrogen, i.e., Estrofem (6 mg/daily), and a progesterone, i.e., Utrogestan (600 mg/daily, micronized, vaginal suppository), daily to render the endometrium lining the patient uterus responsive and ready for allowing implantation of the transferred eggs. […]

[2] = system: metaphase II oocytes; assay: FF-MAS as adjunct to a standard FSH based IVF treatment (GnRH antagonist Cetrorelix protocol, ICSI); type: cell-based, human
Procedure: as §1, with “regulation” for “regulation with an GnRH analog, i.e., Synarel (nasal spray, two puffs daily), for at least 14 days (starting in the luteal phase of the previous cycle or Day 1 or 2 in the follicular phase of the current cycle) and ovarian stimulation”, “225 IU starting on Day 1 or 2 of the current cycle and used a GnRH antagonist, i.e., Cetrorelix (1 mg daily, subcutaneously, one shot), in the current cycle.” for “225 IU.”, “hCG, i.e., Profasi” for “hCG, i.e. Profase”, “progesterone, i.e.” for “progesterone, i.e.,”, “suppository),” for “suppository), daily”

[3] = FF-MAS 5 μM, 0.8% HSA in IVF 20 medium, 4 hours before and 20 hours after ICSI

Measured: results of the IVF procedure compared with the known procedures

CC(C)=CCC[C@@H](C)[C@H]1CC=C2C3=C(CC[C@@]21C)[C@@]1(C)CC[C@H](O)C(C)(C)[C@@H]1CC3 [FF-MAS, 4,4-dimethyl-5α-cholesta-8,14,24-triene-3β-ol]
better results: [1]; [3] | [1]; FF-MAS 20 μM, otherwise procedure of Example 4 | [2]; [3] | [2]; FF-MAS 20 μM, otherwise procedure of Example 3
